Data set [1] in a line: Cytotoxicity, MTT reduction assay, COS-7 cells. Type of data set: cell-based. The following applies: African green monkey, COS-7 cells (CRL-1651), 12.5-50 μM. The protocol:
(§1) Mouse pre-B cells were cultured in RPMI1640 plus 5% FBS, antibiotic/antimycotic, non essential amino acid, 50 μM β-mercaptoethanol and 1 mM natrium pyruvate. HELA cells were maintained in RPMI1640 plus 10% FBS, pen/strept and 2 mM L-glutamine. Cos-7 cells were grown in DMEM medium with […] glucose supplemented with 10% FCS, pen/strept and 2 mM L-glutamine. All cell lines were grown at 37° C. at 5% CO2. Cell media, media supplements, PBS-buffer, HEPES, antibiotic/antimycotic, pen/strept, non essential amino acid, L-glutamine, β-mercaptoethanol and sera were purchased from Gibco (Pailsey, UK). All fine chemicals were supplied by Merck (Darmstadt, Germany).
(§2) The cytotoxicity of the peptides to HELA cells (Acc57) and COS-7 cells (CRL-1651) was determined using the MTT reduction assay (T. Mossman, J. Immunol. Meth. 1983, 65, 55-63; M. V. Berridge, A. S. Tan, Arch. Biochem. Biophys. 1993, 303, 474-482). Briefly, the method was as follows: 4000 HELA cells/well and 3400 COS-7 cells/well were seeded and grown in 96-well microtiter plates for 24 h at 37° C. at 5% CO2. Thereafter, time zero (Tz) was determined by MTT reduction (see below). The supernatant of the remaining wells was discarded, and fresh medium and compounds in serial dilutions (12.5, 25 and 50 μM, triplicates) were pipetted into the wells. After incubation of the cells for 48 h at 37° C. at 5% CO2 the supernatant was discarded again and 100 μL MTT reagent (0.5 mg/mL in RPMI1640 and DMEM, respectively)/well was added. Following incubation at 37° C. for 2-4 h the media were aspirated and the cells were spiked (100 μL isopropanol/well). The absorbance of the solubilized formazan was measured at 595 nm (OD595peptide). For each concentration averages were calculated from triplicates. The percentage of growth was calculated as follows: (OD595peptide-OD595Tz-OD595Empty well)/(OD595Tz-OD595Empty well)×100%. The GI50 (Growth Inhibition) concentrations were calculated for each peptide by using a trend line function for the concentrations (50, 25, 12.5 and 0 μM), the corresponding percentages and the value 50, (=TREND (C50: C0, %50:%0,50).
For orientation: Tetrazolium dyes change colour on reduction, which living cells bring about.

Data set [2] deals with T1, human CXCR4 (Homo sapiens, UniProt P61073).
T1 construct: expressed in transfected cells; host or cells: mouse pre-B cell line 300-19
T1 sequence (P61073 whole entry): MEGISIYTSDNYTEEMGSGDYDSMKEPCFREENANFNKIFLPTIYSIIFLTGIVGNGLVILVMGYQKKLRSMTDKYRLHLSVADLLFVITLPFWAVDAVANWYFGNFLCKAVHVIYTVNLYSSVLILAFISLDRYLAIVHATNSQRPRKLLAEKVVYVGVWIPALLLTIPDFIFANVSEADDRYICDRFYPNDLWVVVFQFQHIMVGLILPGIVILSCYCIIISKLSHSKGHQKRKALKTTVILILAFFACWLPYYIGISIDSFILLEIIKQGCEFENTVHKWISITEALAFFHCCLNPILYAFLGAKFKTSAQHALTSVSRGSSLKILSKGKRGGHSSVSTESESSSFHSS
Nature of the data set: Ca2+-assay: CXCR4-antagonizing activity (SDF-1 induced calcium mobilization). Type of data set: cell-based. An excerpt:
2.3. Ca^2+-Assay: CXCR4-Antagonizing Activity of the Peptides
Increases in intracellular calcium were monitored using a Flexstation 384 (Molecular Devices, Sunnyvale, Calif.) to assay the peptides for CXCR4 antagonism in a mouse pre-B cell line 300-19 stably transfected with human CXCR4 (E. Oberlin, A. Amara, F. Bachelerie, C. Bessia, J.-L. Virelizier, F. Arenzana-Seisdedos, O, Schwartz, J.-M. Heard, I. Clark-Lewis, D. F. Legler, M. Loetscher, M. Baggiolini, B. Moser, Nature 1996, 382, 833-835; M. Loetscher, T. Geiser, T. O'Reilly, R. Zwalen, M. Baggiolini, B. Moser, J. Biol. Chem. 1994, 269, 232-237; M. D'Apuuo, A. Rolink, M. Loetscher, J. A. Hoxie, I. Clark-Lewis, F. Melchors, M. Baggiolini, B. Moser, Eur. J. Immunol. 1997, 27, 1788-1793). The cells were batch loaded with the Calcium 4 Assay kit (Molecular Devices) in assay buffer (Hanks Balanced salt solution [HBSS], 20 mM HEPES, pH 7.4, 0.1% BSA) for 1 h at room temperature and labeled cells were dispensed into black well assays plates (Costar No. 3603). Calcium mobilization induced by stromal-derived factor-1 (SDF-1) was measured in the Flexstation 384 (excitation: 485 nm; emission: 525 nm) for 90 seconds. Antagonist activity of peptides was determined by spiking the cells with compounds prior to SDF-1 addition. Dose response curves (compound concentration versus % maximum response for SDF-1) were determined for each antagonist and IC50 values were calculated by fitting the data to a four parameter logistic equation using SoftmaxPro 4.8 (Molecular Devices).
Background: Calcium flux is commonly read through the fluorescence of an indicator in the cells.

Data set [3] in a line: Plasma stability in human plasma. Type of data set: in vitro ADME. The method, then:
(§3) Percent hemolysis was calculated as follows: (OD540peptide/OD540H2O)×100%. 2.6. Plasma Stability
(§4) The stability of the peptides in human and mouse plasma was determined by applying the following method: 346.5 μL/deep well of freshly thawed human plasma (Basler Blutspendedienst) and mouse plasma (Harlan Sera-Lab, UK), respectively, were spiked with 3.5 μL/well of compound dissolved in DMSO/H2O ([…] [v/v], 1 mM, triplicate) and incubated at 37° C. At t=0, 15, 30, 60, 120, 240 and 1440 min aliquots of 50 μL were transferred to filtration plate wells containing 150 μL/well of 2% formic acid in acetonitrile. Following shaking for 2 min the occurred suspensions were filtrated by vacuum and 50 μL of each filtrate was mixed with 100 μL of 1% formic acid in H2O. After transfer to a propylene microtiter plate, the filtrates were analyzed by LC/MS as follows: Column: Waters, XBridge C18, mobile phases: (A) water+0.1% formic acid and (B) acetonitrile/water, 95/5 (v/v)+0.1% formic acid, gradient: 5%-100% (B) in 2 minutes, electrospray ionization, MRM detection (triple quadrupole). The peak areas were determined and triplicate values are averaged. The stability is expressed in percent of the initial value at t=0. (tx/t0×100). By using the TREND function of EXCEL (Microsoft Office 2003) T1/2 were determined.

The nature of data set [4]: Plasma stability in mouse plasma. Type of data set: in vitro ADME. The method, then:
as §3, §4

The nature of data set [5]: Cytotoxicity, MTT reduction assay, HELA cells. Type of data set: cell-based. The following applies: human, HELA cells (Acc57), 12.5-50 μM. The method, then:
as §1, §2

For data set [6], the system named is human red blood cells (hRBC). In words: Hemolysis of human red blood cells. Type of data set: cell-based. As to conditions: 20% hRBC, 1 h, 37° C. The protocol: The peptides were tested for their hemolytic activity against human red blood cells (hRBC). Fresh hRBC were washed three times with phosphate buffered saline (PBS) and centrifuged for 10 min at 2000×g. Compounds (100 μM) were incubated with 20% hRBC (v/v) for 1 h at 37° C. and shaking at 300 rpm. The final erythrocyte concentration was approximately 0.9×10^9 cells/mL. A value of 0% and 100% cell lyses, respectively, was determined by incubation of hRBC in the presence of PBS containing 0.001% acetic acid and 2.5% Triton X-100 in H2O, respectively. The samples were centrifuged, the supernatants were 8-fold diluted in PBS buffer and the optical densities (OD) were measured at 540 nm. The 100% lyses value (OD540H2O) gave an OD540 of approximately 0.5-1.0.
as §3

The mark [7] stands for this setting: mouse pre-B cell line 300-19 transfected with human CXCR4, SDF-1 induced Ca2+ mobilization, read-out: IC50% [nM] ± SD, CXCR4 receptor.
[8] abbreviates: human plasma, 37° C., 1440 min, read-out: human pl. cpd left at 1440 min.
Where [9] appears, read: human plasma, 37° C., up to 1440 min.

Each structure is given as a SMILES string. Where two headings read alike, the source gives them in different places. Bridge positions count the residues as written; N and C are the ends. Square brackets hold non-standard residues; d marks the D form. Peptide text beside a SMILES is read from it. * marks the point of attachment. Myristoyl = CCCCCCCCCCCCCC(=O)*; Lauroyl = CCCCCCCCCCCC(=O)*; Decanoyl = CCCCCCCCCC(=O)*; Dab = NCC[C@H](N)C(=O)O; X3 = CCCCCCCCCC*

What is called GI50 is the concentration that inhibits growth by half. High values mean less potent growth inhibition, low ones more potent growth inhibition. The term IC50 denotes the concentration that inhibits the measured activity by half. Regarding `CCCCCCCCCCCCCC(=O)NCCCC[C@@H]1NC(=O)[C@H](Cc2ccc(O)cc2)NC(=O)[C@@H]2CSSC[C@H](NC(=O)[C@H](C)NC(=O)[C@H](Cc3c[nH]cn3)NC(=O)[C@H](Cc3ccc(O)cc3)NC(=O)[C@@H]3CCCN3C(=O)[C@H]3CCCN3C(=O)[C@H](CCCCN)NC1=O)C(=O)N[C@@H](CCCNC(=N)N)C(=O)N[C@@H](C)C(=O)N1CCC[C@@H]1C(=O)N[C@@H](CCN)C(=O)N[C@@H](CCCNC(=N)N)C(=O)N[C@@H](Cc1ccc(O)cc1)C(=O)N2` [Ex. 19] (cyclo(YHACRA[dP][Dab]RYCYK(Myristoyl)K[dP]P); disulfide 4-11), the values for the concentration for 50% growth inhibition (GI50) at 48 h in data set [1] and in data set [5] were above 50 µM and above 32 µM, respectively. Also, in data set [2] (setting [7]), the half-inhibitory concentration (IC50) came out at 9.1 ± 4.2 nM. Moreover, the remaining at 24 h, 10 μM in data set [3] (setting [8]) was determined as 99%; in data set [4] (mouse plasma, 37° C., 1440 min, read-out: mouse pl. cpd left at 1440 min), 76%. Further, in data set [3] (setting [9]), the “human pl. T1/2” value is 24 h. In addition, the “mouse pl. T1/2” value in data set [4] (mouse plasma, 37° C., up to 1440 min) stood at 24 h. Besides, the “Hemolysis at 100 μM” value in data set [6] is recorded as 1.2%.
With `CCCCCCCCCC(=O)NCCCC[C@@H]1NC(=O)[C@H](Cc2ccc(O)cc2)NC(=O)[C@@H]2CSSC[C@H](NC(=O)[C@H]([C@@H](C)O)NC(=O)[C@H](Cc3c[nH]cn3)NC(=O)[C@H](Cc3ccc(O)cc3)NC(=O)[C@@H]3CCCN3C(=O)[C@@H](Cc3ccc(O)cc3)NC(=O)[C@H](CCCCN)NC1=O)C(=O)N[C@@H](CCCNC(=N)N)C(=O)N[C@@H](C)C(=O)N1CCC[C@@H]1C(=O)N[C@@H](CCN)C(=O)N[C@@H](CCCNC(=N)N)C(=O)N[C@@H](Cc1ccc(O)cc1)C(=O)N2` [Ex. 16] (cyclo(YHTCRA[dP][Dab]RYCYK(Decanoyl)K[dY]P); disulfide 4-11), the GI50 at 48 h in data set [1] and in data set [5] was above 50 µM each time. Further, in data set [2] (setting [7]), the IC50 was found to be 18.2 ± 11 nM. The half-life at 10 μM is 19.9 h in data set [3] (human plasma, 37° C., up to 1440 min, read-out: human pl. T1/2) and 10.3 h in data set [4] (mouse plasma, 37° C., up to 1440 min, read-out: mouse pl. T1/2). The remaining at 24 h, 10 μM in data set [3] (human, plasma) amounted to 48%; in data set [4] (mouse, plasma) it was 35%. Moreover, the “Hemolysis at 100 μM” value in data set [6] is on record as 0.5%.
`CCCCCCCCCC(=O)NCCCC[C@@H]1NC(=O)[C@H](Cc2ccc(O)cc2)NC(=O)[C@@H]2CSSC[C@H](NC(=O)[C@H]([C@@H](C)O)NC(=O)[C@H](Cc3c[nH]cn3)NC(=O)[C@H](Cc3ccc(O)cc3)NC(=O)[C@@H]3CCCN3C(=O)[C@H]3CCCN3C(=O)[C@H](CCCCN)NC1=O)C(=O)N[C@@H](CCCNC(=N)N)C(=O)NCC(=O)N1CCC[C@@H]1C(=O)N[C@@H](CCN)C(=O)N[C@@H](CCCNC(=N)N)C(=O)N[C@@H](Cc1ccc(O)cc1)C(=O)N2` [Ex. 15] (cyclo(YHTCRG[dP][Dab]RYCYK(Decanoyl)K[dP]P); disulfide 4-11): the 50% growth inhibitory concentration (GI50) at 48 h is above 40 µM in data set [1] and above 50 µM in data set [5]. Moreover, the IC50 in data set [2] (setting [7]) is 11.2 ± 4 nM. For the same compound, the remaining at 24 h, 10 μM in data set [3] (setting [8]) worked out at 73%. Besides, in data set [3] (setting [9]), the “human pl. T1/2” value was 24 h. The “Hemolysis at 100 μM” value in data set [6] worked out at 0.6%.
Regarding `CCCCCCCCCCCC(=O)NCC[C@@H]1NC(=O)[C@H](Cc2ccc(O)cc2)NC(=O)[C@@H]2CSSC[C@H](NC(=O)[C@H](C)NC(=O)[C@H](Cc3c[nH]cn3)NC(=O)[C@H](Cc3ccc(O)cc3)NC(=O)[C@@H]3CCCN3C(=O)[C@H]3CCCN3C(=O)[C@H](CCCCN)NC1=O)C(=O)N[C@@H](CCCNC(=N)N)C(=O)N[C@@H](C)C(=O)N1CCC[C@@H]1C(=O)N[C@@H](CCN)C(=O)N[C@@H](CCCNC(=N)N)C(=O)N[C@@H](Cc1ccc(O)cc1)C(=O)N2` [Ex. 11] (cyclo(YHACRA[dP][Dab]RYCY[Dab](Lauroyl)K[dP]P); disulfide 4-11), the figures for the GI50 at 48 h in data set [1] and in data set [5] were above 50 µM and above 29 µM, respectively. Further, the IC50 in data set [2] (setting [7]) amounted to 7.3 ± 4.7 nM. Also, the remaining at 24 h, 10 μM in data set [3] (setting [8]) amounted to 82%. Besides, in data set [3] (setting [9]), the “human pl. T1/2” value amounted to 24 h. In data set [6], the “Hemolysis at 100 μM” value was found to be 0.7%.
For the compound `CCCCCCCCCCOC[C@@H]1NC(=O)[C@H](Cc2ccc(O)cc2)NC(=O)[C@@H]2CSSC[C@H](NC(=O)[C@H]([C@@H](C)O)NC(=O)[C@H](Cc3c[nH]cn3)NC(=O)[C@H](Cc3ccc(O)cc3)NC(=O)[C@@H]3CCCN3C(=O)[C@H]3CCCN3C(=O)[C@H](CCC(N)=O)NC1=O)C(=O)N[C@@H](CCCNC(=N)N)C(=O)NCC(=O)N1CCC[C@@H]1C(=O)N[C@@H](CCN)C(=O)N[C@@H](CCCNC(=N)N)C(=O)N[C@@H](Cc1ccc(O)cc1)C(=O)N2` [Ex. 30] (cyclo(YHTCRG[dP][Dab]RYCYS(X3)Q[dP]P); disulfide 4-11), the GI50 at 48 h in data set [1] and in data set [5] was above 50 µM throughout. In data set [2], the IC50 came to 55.1 ± 19 nM. The remaining at 24 h, 10 μM in data set [3] (setting [8]) was 54%. In addition, the “human pl. T1/2” value in data set [3] (setting [9]) was 24 h. Moreover, the “Hemolysis at 100 μM” value in data set [6] was 5.5%.

Values taken from patent publication US8716242B2, “β-hairpin peptidomimetics” (priority 2009, dated 2014).
